US20260335313A1, “NOVEL CDK9 INHIBITORS” (Origenis GmbH, priority 2022, published 2026)

Target: T1, CDK9/CyclinT1 (Homo sapiens, UniProt P50750)
T1 construct: purchased ProQinase/Reaction Biology, USA 0371-0345-1
Assay: CDK9/T1 ADPGlo Activity (ADP Glo Kinase assay, inhibitory activity)
Type: biochemical
Details: CDK9/CyclinT1 f.c. 6 nM; PDKtide 40 microM; ATP 10 microM; 10 min preincubation, 120 min at RT; 12 concentrations, 1:3 dilution from 5 microM
Description: ASSAY PROTOCOL for Determination of Inhibitory Activity
The testing compound was evaluated in 12 concentrations in a 1:3 dilution series, starting from 5microM as the highest concentration.
In a white 384 microplate (Greiner bio-one, Austria #784904,) with 2 microL of 3-fold concentrated CDK9/CyclinT1 (ProQinase/Reaction Biology, USA #0371-0345-1, LOT.: 012), final concentration (f.c.) 6 nM, in 1× kinase buffer, 2 microL of compound (3× fold concentrated in f.c. 1.66% DMSO/H2O) was added and incubated at Room Temperature (RT) for 10 min. Then 2 microL of Substrate/ATP-Mix (3× PDKtide f.c. 40 microM, SignalChem Biotech, Canada via Biozol, Eching, Germany #P10-58, LOT.: L2230-7 and 3× UltraPure ATP f.c. 10 microM (ADP Glo Kinase assay, Promega GmbH, Germany #V9102)) were added, mixed and incubated for 120 min at RT.
After incubation time, 5 microL of ADP Glo reagent (ready to use, ADP Glo Kinase assay, Promega GmbH, Germany #V9102) were added, mixed and incubated for 40 min at RT.
In the last step, 10 microL of ADP Glo Detection reagent (ready to use, ADP Glo Kinase assay, Promega GmbH, Germany #V9102) were added, mixed and incubated for 30 min at RT.
GloMax Discover GM3000 Reader (Promega GmbH, Germany 9700000249) was used for the readout.
The inhibitor concentration was plotted against the luminescence to determine the IC50 using XLFit 5.5 (IDBS, Guildford) to fit to a sigmoidal dose response curve with a variable slope.

T1 sequence (P50750 whole entry): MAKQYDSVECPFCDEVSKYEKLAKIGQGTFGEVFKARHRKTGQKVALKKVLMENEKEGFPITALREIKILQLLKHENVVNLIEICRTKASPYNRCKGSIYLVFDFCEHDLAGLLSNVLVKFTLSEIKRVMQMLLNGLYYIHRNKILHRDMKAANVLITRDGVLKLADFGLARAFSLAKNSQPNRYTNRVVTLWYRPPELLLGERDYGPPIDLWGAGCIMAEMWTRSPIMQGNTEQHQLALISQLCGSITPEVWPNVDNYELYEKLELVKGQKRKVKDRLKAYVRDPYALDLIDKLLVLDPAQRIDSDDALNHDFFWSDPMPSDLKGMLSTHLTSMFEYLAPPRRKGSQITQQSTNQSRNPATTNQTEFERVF
T1 sequence (O60563 whole entry partner): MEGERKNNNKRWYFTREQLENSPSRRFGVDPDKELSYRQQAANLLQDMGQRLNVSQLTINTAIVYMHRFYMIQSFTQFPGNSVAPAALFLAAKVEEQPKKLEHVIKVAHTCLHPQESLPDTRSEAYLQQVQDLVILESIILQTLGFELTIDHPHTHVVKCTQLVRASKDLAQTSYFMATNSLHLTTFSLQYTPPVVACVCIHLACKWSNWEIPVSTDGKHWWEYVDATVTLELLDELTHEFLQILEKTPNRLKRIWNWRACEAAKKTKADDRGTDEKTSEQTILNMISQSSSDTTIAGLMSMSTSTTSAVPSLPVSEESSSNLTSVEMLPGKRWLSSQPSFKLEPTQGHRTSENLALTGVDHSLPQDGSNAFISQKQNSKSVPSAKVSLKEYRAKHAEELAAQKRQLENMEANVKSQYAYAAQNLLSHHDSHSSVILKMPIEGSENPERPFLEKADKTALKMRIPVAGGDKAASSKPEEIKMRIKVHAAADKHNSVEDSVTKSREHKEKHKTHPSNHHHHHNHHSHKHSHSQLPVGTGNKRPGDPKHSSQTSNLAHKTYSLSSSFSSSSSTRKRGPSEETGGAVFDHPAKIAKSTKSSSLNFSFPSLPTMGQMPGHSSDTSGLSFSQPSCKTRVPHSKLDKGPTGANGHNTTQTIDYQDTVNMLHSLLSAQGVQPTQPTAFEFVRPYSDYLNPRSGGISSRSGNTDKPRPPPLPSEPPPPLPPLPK

IC50 | SMILES
< 20 nM | CS(=O)(=O)N1CCC(Nc2cc(-c3c(F)cccc3F)nn3c(Cl)cnc23)CC1 [Example #17, 3-chloro-6-(2,6-difluorophenyl)-N-(1-(methylsulfonyl)piperidin-4-yl)imidazo[1,2-b]pyridazin-8-amine]
< 20 nM | CN1CCC(Nc2cc(-c3c(F)cccc3F)nn3c(Cl)cnc23)C1 (racemic) [Example #18, 3-chloro-6-(2,6-difluorophenyl)-N-(1-methylpyrrolidin-3-yl)imidazo[1,2-b]pyridazin-8-amine]
< 20 nM | Fc1cccc(F)c1-c1cc(NCc2cccnc2)c2ncc(Cl)n2n1 [Example #4, 3-chloro-6-(2,6-difluorophenyl)-N-(pyridin-3-ylmethyl)imidazo[1,2-b]pyridazin-8-amine]
< 200 nM | CC1CN(S(C)(=O)=O)CCC1Nc1cc(-c2c(F)cccc2F)nn2c(Cl)cnc12 (racemic) [Example #14, 3-chloro-6-(2,6-difluorophenyl)-N-(3-methyl-1-(methylsulfonyl)piperidin-4-yl)imidazo[1,2-b]pyridazin-8-amine]
< 200 nM | CC1CN(C(=O)OC(C)(C)C)CCC1Nc1cc(-c2c(F)cccc2F)nn2c(Cl)cnc12 (racemic) [Example #16, tert-butyl-4-((3-chloro-6-(2,6-difluorophenyl)imidazo[1,2-b]pyridazin-8-yl)amino)-3-methylpiperidine-1-carboxylate]
< 20 nM | Cc1cc(C)c(CNc2cc(-c3c(F)cccc3F)nn3c(Cl)cnc23)cn1 [Example #3, 3-chloro-6-(2,6-difluorophenyl)-N-((4,6-dimethylpyridin-3-yl)methyl)imidazo[1,2-b]pyridazin-8-amine]
< 200 nM | CN1CCN([C@H]2CC[C@H](Nc3cc(-c4c(F)cccc4F)nn4c(Cl)cnc34)CC2)CC1 [Example #1, 3-chloro-6-(2,6-difluorophenyl)-N-((1r,4r)-4-(4-methylpiperazin-1-yl)cyclohexyl)imidazo[1,2-b]pyridazin-8-amine]
< 200 nM | CN(C)[C@H]1CC[C@H](Nc2cc(-c3c(F)cccc3F)nn3c(Cl)cnc23)CC1 [Example #12, (1r,4r)-N1-(3-chloro-6-(2,6-difluorophenyl)imidazo[1,2-b]pyridazin-8-yl)-N4,N4-dimethylcyclohexane-1,4-diamine]
< 200 nM | N[C@H]1CC[C@H](Nc2cc(-c3c(F)cccc3F)nn3c(Cl)cnc23)CC1 [Example #9, (1r,4r)-N1-(3-chloro-6-(2,6-difluorophenyl)imidazo[1,2-b]pyridazin-8-yl)cyclohexane-1,4-diamine]
< 200 nM | NC1CCC(Nc2c(Cl)c(-c3c(F)cccc3F)nn3c(Cl)cnc23)CC1 (stereo not shown) [Example #8, (1r,4r)-N1-(3,7-dichloro-6-(2,6-difluorophenyl)imidazo[1,2-b]pyridazin-8-yl)cyclohexane-1,4-diamine]
< 200 nM | CC1CNCCC1Nc1cc(-c2c(F)cccc2F)nn2c(Cl)cnc12 (racemic) [Example #15, 3-chloro-6-(2,6-difluorophenyl)-N-(3-methylpiperidin-4-yl)imidazo[1,2-b]pyridazin-8-amine]
< 20 nM | CN1CCC(Nc2cc(-c3c(F)cccc3F)nn3c(Cl)cnc23)CC1 [Example #10, 3-chloro-6-(2,6-difluorophenyl)-N-(1-methylpiperidin-4-yl)imidazo[1,2-b]pyridazin-8-amine]
< 20 nM | Fc1cccc(F)c1-c1cc(N[C@H]2CC[C@H](N3CCOCC3)CC2)c2ncc(Cl)n2n1 [Example #11, 3-chloro-6-(2,6-difluorophenyl)-N-((1r,4r)-4-morpholinocyclohexyl)imidazo[1,2-b]pyridazin-8-amine]
